From patent publication US20050009840A1 (SUGEN, INC., priority 2003, published 2005)

Target: T1, Met kinase domain (GST fusion protein) (Homo sapiens, UniProt P08581)
T1 construct: Purified GST fusion protein containing the Met kinase domain
Test: Met transphosphorylation assay (ELISA, poly(glu-tyr) substrate);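 note: Cell-free ELISA with plate-bound poly(Glu:Tyr 4:1) phosphorylated by GST-fused Met kinase domain plus ATP and Mn2+, phosphotyrosine detected by anti-phosphotyrosine antibody with HRP and ABTS read-out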
Format: biochemical
Conditions: read-out: Met IC50

T1 sequence (P08581 1078-1345 limits assumed): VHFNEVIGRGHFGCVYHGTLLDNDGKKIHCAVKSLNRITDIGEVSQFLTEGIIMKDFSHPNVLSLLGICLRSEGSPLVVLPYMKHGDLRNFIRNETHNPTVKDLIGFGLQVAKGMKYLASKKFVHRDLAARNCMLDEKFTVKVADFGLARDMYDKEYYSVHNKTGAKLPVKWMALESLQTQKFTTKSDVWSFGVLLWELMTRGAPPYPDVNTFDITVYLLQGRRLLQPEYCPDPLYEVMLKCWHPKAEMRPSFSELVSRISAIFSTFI

Compared with `C[C@@H]1CN(Cc2c[nH]c3ccc(-c4cnc(N)c(OCc5c(Cl)cccc5Cl)c4)cc23)C[C@H](C)O1` [Example I-66, 3-(2,6-Dichloro-benzyloxy)-5-[3-(2,6-dimethyl-morpholin-4-ylmethyl)-1H-indol-5-yl]-pyridin-2-ylamine], `C[C@@H]1CN(Cc2c[nH]c3ccc(-c4cnc(N)c(OCc5c(F)ccc(F)c5Cl)c4)cc23)C[C@H](C)O1` [Example I-71, 3-(2-Chloro-3,6-difluoro-benzyloxy)-5-[3-(2,6-dimethyl-morpholin-4-ylmethyl)-1H-indol-5-yl]-pyridin-2-ylamine] is lower in IC50: greater than 20000 nM for the first, 2710 nM for the second.

Going from `CC(=O)N[C@@H]1CCN(Cc2c[nH]c3ccc(-c4cnc(N)c(OCc5c(Cl)cccc5Cl)c4)cc23)C1` [Example I-67, N-(1-{5-[6-Amino-5-(2,6-dichloro-benzyloxy)-pyridin-3-yl]-1H-indol-3-ylmethyl}-(3R)-pyrrolidin-3-yl)-acetamide] to `CC(=O)N[C@H]1CCN(Cc2c[nH]c3ccc(-c4cnc(N)c(OCc5c(F)ccc(F)c5Cl)c4)cc23)C1` [Example I-72, N-(1-{5-[6-Amino-5-(2-chloro-3,6-difluoro-benzyloxy)-pyridin-3-yl]-1H-indol-3-ylmethyl}-(3S)-pyrrolidin-3-yl)-acetamide], the IC50 falls from 1790 nM to 950 nM (1.9-fold). The second is the more potent here.

Compared with `CC(=O)N1CCN(Cc2c[nH]c3ccc(-c4cnc(N)c(OCc5c(Cl)cccc5Cl)c4)cc23)CC1` [Example I-68, 1-(4-{5-[6-Amino-5-(2,6-dichloro-benzyloxy)-pyridin-3-yl]-1H-indol-3-ylmethyl}-piperazin-1-yl)-ethanone], `CC(=O)N1CCN(Cc2c[nH]c3ccc(-c4cnc(N)c(OCc5c(F)ccc(F)c5Cl)c4)cc23)CC1` [Example I-70, 1-(4-{5-[6-Amino-5-(2-chloro-3,6-difluoro-benzyloxy)-pyridin-3-yl]-1H-indol-3-ylmethyl}-piperazin-1-yl)-ethanone] is 2.7-fold lower in IC50: 2180 nM for the first, 800 nM for the second.

`Nc1ncc(-c2ccc3[nH]cc(CN4CCCCC4)c3c2)cc1OCc1c(F)ccc(F)c1Cl` [Example I-73, 3-(2-Chloro-3,6-difluoro-benzyloxy)-5-(3-piperidin-1-ylmethyl-1H-indol-5-yl)-pyridin-2-ylamine] and `Nc1ncc(-c2ccc3[nH]cc(CN4CCCC4)c3c2)cc1OCc1c(F)ccc(F)c1Cl` [Example I-75, 3-(2-Chloro-3,6-difluoro-benzyloxy)-5-(3-pyrrolidin-1-ylmethyl-1H-indol-5-yl)-pyridin-2-ylamine] are within 1.5-fold of each other in IC50: 740 nM for the first, 700 nM for the second.

`Nc1ncc(-c2ccc3[nH]cc(CN4CCOCC4)c3c2)cc1OCc1c(F)ccc(F)c1Cl` [Example I-74, 3-(2-Chloro-3,6-difluoro-benzyloxy)-5-(3-morpholin-4-ylmethyl-1H-indol-5-yl)-pyridin-2-ylamine] and `Nc1ncc(-c2ccc3[nH]c(C(=O)NCCN4CCOCC4)cc3c2)cc1OCc1c(Cl)cccc1Cl` [Example I-82, 5-[6-Amino-5-(2,6-dichloro-benzyloxy)-pyridin-3-yl]-1H-indole-2-carboxylic acid (2-morpholin-4-yl-ethyl)-amide] are within 1.5-fold of each other in IC50: 1400 nM for the first, 1800 nM for the second.

Compared with `CCOC(=O)c1cc2cc(-c3cnc(N)c(OCc4c(Cl)cccc4Cl)c3)ccc2[nH]1` [Example I-76, 5-[6-Amino-5-(2,6-dichloro-benzyloxy)-pyridin-3-yl]-1H-indole-2-carboxylic acid ethyl ester], `Nc1ncc(-c2ccc3[nH]c(C(=O)O)cc3c2)cc1OCc1c(Cl)cccc1Cl` [Example I-77, 5-[6-Amino-5-(2,6-dichloro-benzyloxy)-pyridin-3-yl]-1H-indole-2-carboxylic acid] is lower in IC50: greater than 20000 nM for the first, 1620 nM for the second. The second is the more potent here.

`CN1CCN(C(=O)c2cc3cc(-c4cnc(N)c(OCc5c(Cl)cccc5Cl)c4)ccc3[nH]2)CC1` [Example I-78] and `Nc1ncc(-c2ccc3[nH]c(C(=O)N4CC[C@H](N)C4)cc3c2)cc1OCc1c(Cl)cccc1Cl` [Example I-84, {5-(6-Amino-5-(2,6-dichloro-benzyloxy)-pyridin-3-yl]-1H-indol-2-yl}-[(3S)-amino-pyrrolidin-1-yl]-methanone] are within 1.5-fold of each other in IC50: 180 nM for the first, 140 nM for the second.

First: CN(C)[C@@H]1CCN(C(=O)c2cc3cc(-c4cnc(N)c(OCc5c(Cl)cccc5Cl)c4)ccc3[nH]2)C1 [Example I-79, {5-[6-Amino-5-(2,6-dichloro-benzyloxy)-pyridin-3-yl]-1H-indol-2-yl}-[(3R)-3-dimethylamino-pyrrolidin-1-yl]-methanone]
Second: CC(C)(C)OC(=O)N[C@H]1CCN(C(=O)c2cc3cc(-c4cnc(N)c(OCc5c(Cl)cccc5Cl)c4)ccc3[nH]2)C1 [Example I-83, (1-{5-[6-Amino-5-(2,6-dichloro-benzyloxy)-pyridin-3-yl]-1H-indole-2-carbonyl}-- (3S)-pyrrlidin-3-yl)-carbamic acid tert-butyl ester]
The IC50 of the first is 28-fold lower: 180 nM for the first, 5000 nM for the second. The first is the more potent here.

Going from `Nc1ncc(-c2ccc3[nH]c(C(=O)N4CCC[C@@H]4CN4CCCC4)cc3c2)cc1OCc1c(Cl)cccc1Cl` [Example I-80, {5-[6-Amino-5-(2,6-dichloro-benzyloxy)-pyridin-3-yl]-1H-indol-2-yl}-[(2R)-2-pyrrolidin-1-ylmethyl-pyrrolidin-1-yl]-methanone] to `Nc1ncc(-c2ccc3[nH]c(C(=O)NCCN4CCCC4)cc3c2)cc1OCc1c(Cl)cccc1Cl` [Example I-81, 5-[6-Amino-5-(2,6-dichloro-benzyloxy)-pyridin-3-yl]-1H-indole-2-carboxylic acid (2-pyrrolidin-1-yl-ethyl)-amide], the IC50 rises from 79 nM to 1200 nM (15-fold). The first is the more potent here.

Compared with `Nc1ncc(-c2ccc3[nH]c(C(=O)NCC(O)CN4CCCC4)cc3c2)cc1OCc1c(Cl)cccc1Cl` (stereo not drawn) [Example I-85, 5-[6-Amino-5-(2,6-dichloro-benzyloxy)-pyridin-3-yl]-1H-indole-2-carboxylic acid (2-hydroxy-3-pyrrolidin-1-yl-propyl)-amide], `Nc1ncc(-c2ccccc2)cc1OCc1cc(F)c(Cl)cc1Cl` [Example I-93, 3-(2,4-Dichloro-5-fluoro-benzyloxy)-5-phenyl-pyridin-2-ylamine] is higher in IC50: 700 nM for the first, greater than 20000 nM for the second. The first is the more potent here.

First: Nc1ncc(-c2ccc(O)cc2)cc1OCc1ccccc1 [Example I-86, 4-(6-Amino-5-benzyloxy-pyridin-3-yl)-phenol]
Second: Nc1ncc(-c2ccccc2)cc1OCc1ccc(F)cc1Cl [Example I-89, 3-(2-Chloro-4-fluoro-benzyloxy)-5-phenyl-pyridin-2-ylamine]
The IC50 of the first is 2-fold lower: 8700 nM for the first, 17000 nM for the second.

`Nc1ncc(-c2ccccc2)cc1OCc1cc(C(F)(F)F)ccc1Cl` [Example I-92, 3-(2-Chloro-5-trifluoromethyl-benzyloxy)-5-phenyl-pyridin-2-ylamine] and `Nc1ncc(-c2ccccc2)cc1OCc1cccc(C(F)(F)F)c1Cl` [Example I-94, 3-(2-Chloro-3-trifluoromethyl-benzyloxy)-5-phenyl-pyridin-2-ylamine] cannot be ordered by IC50: greater than 20000 nM for the first, greater than 20000 nM for the second.

Compound `Nc1ncc(-c2ccccc2)cc1OCc1c(F)ccc(F)c1Cl` [Example I-95, 3-(2 Chloro-3,6-difluoro-benzyloxy)-5-phenyl-pyridin-2-ylamine] has an IC50 of 640 nM.

Same assay, conditions: read-out: Met inhibition (printed in the Met IC50 column)

`Nc1ncc(-c2ccccc2)cc1OCc1ccccc1Cl` [Example I-90, 3-(2-Chloro-benzyloxy)-5-phenyl-pyridin-2-ylamine] and `Nc1ncc(-c2ccccc2)cc1OCc1cc(Cl)ccc1Cl` [Example I-91, 3-(2,5-Dichloro-benzyloxy)-5-phenyl-pyridin-2-ylamine] are the same in inhibition at 20 µM: 48% for the first, 48% for the second.
